Test results as given in US9204653B2, “5-fluoro pyrimidine derivatives” (DOW AGROSCIENCES LLC, priority 2008, dated 2015).
Where “and” joins values, the source holds several entries; their conditions need not be identical. Identical values can stand only once. Like-named read-outs stand apart in the source and are kept apart here.

How the values were obtained:
[1] = test system: Venturia inaequalis; Bayer Code VENTIN; experiment: Apple scab; type: in vivo; settings: 24 h, % disease control rating, one day protectant; for pest or weed control at 25 ppm: read-out: VENTIN 1 DP 25 ppm; for pest or weed control at 75 ppm: read-out: VENTIN 1 DP 75 ppm
[2] = test system: Mycosphaerella graminicola; Anamorph: Septoria tritici; Bayer Code SEPTTR; experiment: Leaf blotch of wheat, foliar fungicide treatment, one day protectant (1DP) or three day curative (3DC); type: in vivo, Septoria tritici on wheat plants (variety Yuma); settings: Zymoseptoria tritici; for pest or weed control at 25 ppm / pest or weed control at 100 ppm: percent disease control rating
[3] = test system: Cercospora beticola; Bayer Code CERCBE; experiment: Leaf spot of sugar beets; type: in vivo, Cercospora beticola on sugar beets (variety HH-88); settings: 24 h, % disease control rating, one day protectant; for pest or weed control at 25 ppm: read-out: CERCBE 1 DP 25 ppm; for pest or weed control at 75 ppm: read-out: CERCBE 1 DP 75 ppm
[4] = test system: Mycosphaerella fijiensis; BAYER Code MYCOFI; experiment: Black Sigatoka disease of banana; type: in vivo, Mycosphaerella fijiensis on field grown banana plants; settings: % disease control rating, banana leaves, natural inoculum
Method: 5. Evaluation of Fungicidal Activity: Black Sigatoka Disease of Banana (Mycosphaerella fijiensis; BAYER Code MYCOFI): […] The leaves were subsequently allowed to become infected by natural inoculum, and were visually assessed for percent disease control ˜40-45 days later. The following tables present the activity of typical compounds of the present disclosure when evaluated in these experiments. The effectiveness of the test compounds in controlling disease was determined by assessing the severity of disease on treated plants, then converting the severity to percent control based on the level of disease on untreated, inoculated plants. In each case of Tables I-V the rating scale is as follows: […]

[5] = test system: Mycosphaerella graminicola; Anamorph: Septoria tritici; Bayer Code SEPTTR; experiment: Fungicidal activity as a seed treatment: leaf blotch of wheat; type: in vivo, Septoria tritici on wheat variety Yuma; settings: for % Control (SEPTTR, seed treatment): 10% SC formulation; for Pot 1 to Pot 8 values (SEPTTR disease severity on treated plants): single pots, 8 replicates
Description: 6. Evaluation of Fungicidal Activity as a Seed Treatment: Leaf Blotch of Wheat (Mycosphaerella graminicola; Anamorph: Septoria tritici; Bayer Code […]) […] Seeds (10 seeds/pot) were planted in 1 inch pot containing 50% mineral soil/50% soil-less Metro mix. 8-day old seedlings were inoculated with an aqueous spore suspension of Septoria tritici, and 8 pots of plants were inoculated for each fungicide rate. After inoculation, plants were kept in 100% relative humidity (one day in a dark dew chamber followed by two days in a lighted mist room) to allow establishment of infection. The plants were then transferred to a greenhouse for disease to develop. When infection levels on untreated plants reached 95 to 100%, disease severities on treated plants were assessed. […] The following tables present the activity of typical compounds of the present disclosure when evaluated in these experiments. The effectiveness of the test compounds in controlling disease was determined by assessing the severity of disease on treated plants, then converting the severity to percent control based on the level of disease on untreated, inoculated plants. In each case of Tables I-V the rating scale is as follows: […]

[6] = 24 h, one day protectant (1DP), read-out: SETTTR 1DP 25 ppm
[7] = 24 h, one day protectant (1DP), read-out: SEPTTR 1DP 100 ppm
[8] = 72 h, three day curative (3DC), read-out: SEPTTR 3DC 25 ppm
[9] = 72 h, three day curative (3DC), read-out: SEPTTR 3DC 100 ppm
[10] = 24 h, % disease control rating, one day protectant

Nc1nc(OCc2ccc(F)cc2)ncc1F [Compound 1, 5-Fluoro-2-(4-fluorobenzyloxy)pyrimidin-4-amine]
pest or weed control at 25 ppm [1]: 76 to 100% | pest or weed control at 75 ppm [1]: 76 to 100% | pest or weed control at 25 ppm [2, 6]: 76 to 100% | pest or weed control at 100 ppm [2, 7]: 76 to 100% | pest or weed control at 25 ppm [2, 8]: 76 to 100% | pest or weed control at 100 ppm [2, 9]: 76 to 100% | pest or weed control at 25 ppm [3]: 26 to 50% | pest or weed control at 75 ppm [3]: 26 to 50% | MYCOFI 1 DP 50 ppm ([4]; 50 ppm): C (26-50) | MYCOFI 1 DP 200 ppm ([4]; 200 ppm): B (51-75)

Cc1ccc(COc2ncc(F)c(N)n2)cc1 [Compound 15]
pest or weed control at 25 ppm [1]: 76 to 100% | pest or weed control at 75 ppm [1]: 76 to 100% | pest or weed control at 25 ppm [2, 6]: 76 to 100% | pest or weed control at 100 ppm [2, 7]: 76 to 100% | pest or weed control at 25 ppm [2, 8]: 76 to 100% | pest or weed control at 100 ppm [2, 9]: 76 to 100% | control of SEPTTR via seed treatment (in words) ([5]; lowest test rate of 1.48 g ai/100 kg seeds): nearly complete control | % Control (SEPTTR, seed treatment) ([5]; rate 1.48 g/100 kg seeds): A (76-100) | Pot 1 to Pot 8 values (SEPTTR disease severity on treated plants) ([5]; rate 1.48 g/100 kg seeds): 3% (3×) and 1% (2×) and 0% (3×) | % Control (SEPTTR, seed treatment) ([5]; rate 4.44 g/100 kg seeds): A (76-100) | Pot 1 to Pot 8 values (SEPTTR disease severity on treated plants) ([5]; rate 4.44 g/100 kg seeds): 0% (5×) and 1% (3×) | % Control (SEPTTR, seed treatment) ([5]; rate 13.3 g/100 kg seeds): A (76-100) | Pot 1 to Pot 8 values (SEPTTR disease severity on treated plants) ([5]; rate 13.3 g/100 kg seeds): 0% (4×) and 1% (4×) | % Control (SEPTTR, seed treatment) ([5]; rate 40 g/100 kg seeds): A (76-100) | Pot 1 to Pot 8 values (SEPTTR disease severity on treated plants) ([5]; rate 40 g/100 kg seeds): 0% (5×) and 1% (3×) | % Control (SEPTTR, seed treatment) ([5]; rate 120 g/100 kg seeds): A (76-100) | Pot 1 to Pot 8 values (SEPTTR disease severity on treated plants) ([5]; rate 120 g/100 kg seeds): 0%

Fc1cnc(OC2CCCCC2)nc1N1CCOCC1 [Compound 941]
pest or weed control at 25 ppm [1]: 51 to 75% | pest or weed control at 75 ppm [1]: 26 to 50% | pest or weed control at 50 ppm ([2]; 24 h, % disease control rating, one day protectant, 50 ppm): 0 to 25% | pest or weed control at 200 ppm [2, 10]: 0 to 25% | pest or weed control at 25 ppm [3]: 0 to 25% | pest or weed control at 75 ppm [3]: 0 to 25%

Fc1cnc(OCc2ccccn2)nc1NC1CC1 [Compound 952]
pest or weed control at 25 ppm [1]: 0 to 25% | pest or weed control at 75 ppm [1]: 0 to 25% | pest or weed control at 200 ppm [2, 10]: 26 to 50% | pest or weed control at 25 ppm [3]: 0 to 25% | pest or weed control at 75 ppm [3]: 0 to 25%
